Experimental data as given in patent US20150105252A1, “SUBSTITUTED PYRAZOLES AS HERBICIDES” (E I DU PONT DE NEMOURS AND COMPANY, priority 2013, published 2015).

Tests used:
[1] = system: corn; experiment: Test A postemergence; format: in vivo, Zea mays
How it was run: (§1)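 Seeds were sown in a loam soil–sand blend and given a directed soil spray preemergence; postemergence plants at 2–10 cm, one- to two-leaf stage, were sprayed with compound in non-phytotoxic solvent with surfactant. After about 10 days in a greenhouse, injury was visually rated against untreated controls (0 = no effect, 100 = complete control).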

[2] = system: barnyardgrass; experiment: Test A postemergence; format: in vivo, Echinochloa crus-galli
How it was run: as §1

[3] = system: blackgrass; experiment: Test C preemergence; format: in vivo, Alopecurus myosuroides; settings: preemergence; for Plant response rating, Blackgrass: 125 g ai/ha, scale 0 to 100, 0 = no effect, 100 = complete control
How it was run: (§2)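 Visual control ratings on a 0–100 scale (100 = complete control) made against untreated controls after 13 to 15 days in greenhouse. Compounds applied in surfactant-containing solvent mixture, either preemergence to loam/sand-sown seeds or postemergence to 1- to 4-leaf plants (2–18 cm) in peat medium.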

[4] = system: oat, wild; experiment: Test C postemergence; format: in vivo, Avena fatua; settings: for Plant response rating (scale of 0 to 100 where 0 is no effect and 100 is complete control), Oat, Wild: Postemergence, 31 g ai/ha, visually evaluated after 13 to 15 days; for Oat, Wild plant response rating / Plant response rating, Oat, Wild: postemergence; for Oat, Wild plant response rating: 62 g ai/ha, scale 0 to 100
How it was run: as §2

[5] = system: foxtail, giant; experiment: Test C preemergence; format: in vivo, Setaria faberii; settings: preemergence; for Plant response rating, Foxtail, Giant: 125 g ai/ha, scale 0 to 100, 0 = no effect, 100 = complete control
How it was run: as §2

[6] = system: rice; experiment: Test B flood; format: in vivo, Oryza sativa; settings: 250 g ai/ha, visual rating on 0 to 100 scale (0 no effect, 100 complete control), 13 to 15 days
How it was run: (§3)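 2-leaf plants; pots flooded 3 cm over soil; compound added to paddy water, depth kept constant. Greenhouse 13–15 d. Visual rating vs controls, 0–100 scale (100 = complete control); dash = no result.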

[7] = system: barnyardgrass; experiment: Test C postemergence; format: in vivo, Echinochloa crus-galli; settings: for Plant response rating (scale of 0 to 100 where 0 is no effect and 100 is complete control), Barnyardgrass: Postemergence, 31 g ai/ha, visually evaluated after 13 to 15 days; for Barnyardgrass plant response rating / Plant response rating, Barnyardgrass: postemergence; for Barnyardgrass plant response rating: 62 g ai/ha, scale 0 to 100
How it was run: as §2

[8] = system: ducksalad; experiment: Test B flood; format: in vivo, Heteranthera limosa; settings: 250 g ai/ha, visual rating on 0 to 100 scale (0 no effect, 100 complete control), 13 to 15 days
How it was run: as §3

[9] = system: barnyardgrass; experiment: Test A preemergence; format: in vivo, Echinochloa crus-galli; settings: preemergence; for Barnyardgrass plant response rating (0 to 100 scale, 0 is no effect, 100 is complete control): 125 g ai/ha, visual injury approx. 10 days after treatment; for Barnyardgrass plant response rating: 500 g ai/ha, visual injury after approx. 10 days, 0 to 100 scale (0 no effect, 100 complete control)
How it was run: as §1

[10] = system: crabgrass, large; experiment: Test C postemergence; format: in vivo, Digitaria sanguinalis; settings: for Plant response rating (scale of 0 to 100 where 0 is no effect and 100 is complete control), Crabgrass, Large: Postemergence, 31 g ai/ha, visually evaluated after 13 to 15 days; for Crabgrass, Large plant response rating / Plant response rating, Crabgrass, Large: postemergence; for Crabgrass, Large plant response rating: 62 g ai/ha, scale 0 to 100
How it was run: as §2

[11] = system: pigweed; experiment: Test A postemergence; format: in vivo, Amaranthus retroflexus; settings: Postemergence
How it was run: as §1

[12] = system: ragweed; experiment: Test C postemergence; format: in vivo, Ambrosia elation; settings: postemergence
How it was run: as §2

[13] = system: ragweed; experiment: Test C preemergence; format: in vivo, Ambrosia elation; settings: preemergence; for Plant response rating, Ragweed: 125 g ai/ha, scale 0 to 100, 0 = no effect, 100 = complete control
How it was run: as §2

[14] = Postemergence, 500 g ai/ha, 0 to 100 scale (0 no effect, 100 complete control)
[15] = postemergence, 125 g ai/ha, about 10 days, visual rating on 0 to 100 scale (0 no effect, 100 complete control)
[16] = 31 g ai/ha, visual rating, scale 0 to 100 (0 no effect, 100 complete control), 13 to 15 days
[17] = 62 g ai/ha, scale 0 to 100 (0 no effect, 100 complete control), 13 to 15 days
[18] = 250 g ai/ha, scale 0 to 100, 0 is no effect, 100 is complete control
[19] = 250 g ai/ha, scale 0 to 100 (0 no effect, 100 complete control)
[20] = 125 g ai/ha, scale 0 to 100, 0 no effect, 100 complete control
[21] = 125 g ai/ha, 0 to 100 scale, 0 no effect, 100 complete control
[22] = 500 g ai/ha, 0 to 100 scale (0 no effect, 100 complete control)

SMILES	Corn plant response rating [1, 14]	Corn plant response rating [1, 15]	Barnyardgrass plant response rating [2, 14]	Barnyardgrass plant response rating [2, 15]	Blackgrass plant response rating [3, 16]	Blackgrass plant response rating [3, 17]	Plant response rating, Blackgrass ([3]; 13 to 15 days)	Blackgrass plant response rating [3, 18]	Plant response rating (scale of 0 to 100 where 0 is no effect and 100 is complete control), Oat, Wild [4]	Oat, Wild plant response rating [4]	Plant response rating, Oat, Wild [4, 19]	Plant response rating, Oat, Wild [4, 20]	Foxtail, Giant plant response rating [5, 16]	Foxtail, Giant plant response rating [5, 17]	Plant response rating, Foxtail, Giant ([5]; 13 to 15 days)	Foxtail, Giant plant response rating [5, 18]	Plant response rating, Rice [6]	Plant response rating (scale of 0 to 100 where 0 is no effect and 100 is complete control), Barnyardgrass [7]	Barnyardgrass plant response rating [7]	Plant response rating, Barnyardgrass [7, 19]	also measured
CCCNC(=O)c1cc(CCC)n(Cc2cc(C(F)(F)F)nn2C)n1 [Compound 198]	90	90	100	90	85	90	90	90	10	10	45	20	98	100	100	100	60	5	15	35	Plant response rating, Barnyardgrass [7, 20]: 15; Plant response rating, Ducksalad [8]: 100; Barnyardgrass plant response rating (0 to 100 scale, 0 is no effect, 100 is complete control) [9]: 100; Barnyardgrass plant response rating [9]: 100; Plant response rating (scale of 0 to 100 where 0 is no effect and 100 is complete control), Crabgrass, Large [10]: 5; Crabgrass, Large plant response rating [10]: 5; Plant response rating, Crabgrass, Large [10, 19]: 30; Plant response rating, Crabgrass, Large [10, 20]: 15; Pigweed plant response rating [11, 21]: 100; Pigweed plant response rating [11, 22]: 100; Plant response rating, Ragweed [12, 19]: 80; Plant response rating, Ragweed [12, 20]: 55; Ragweed plant response rating [13, 16]: 60; Ragweed plant response rating [13, 17]: 85; Plant response rating, Ragweed ([13]; 13 to 15 days): 98; Ragweed plant response rating [13, 18]: 100
CCc1cc(C(=O)NCC2CC2)nn1Cc1ccnc(C(F)(F)F)c1 [Compound 199]	90	50	90	70	90	90	90	90	5	10	80	30	100	100	100	100	45	10	10	45	Plant response rating, Barnyardgrass [7, 20]: 30; Plant response rating, Ducksalad [8]: 90; Barnyardgrass plant response rating (0 to 100 scale, 0 is no effect, 100 is complete control) [9]: 100; Barnyardgrass plant response rating [9]: 100; Plant response rating (scale of 0 to 100 where 0 is no effect and 100 is complete control), Crabgrass, Large [10]: 10; Crabgrass, Large plant response rating [10]: 10; Plant response rating, Crabgrass, Large [10, 19]: 60; Plant response rating, Crabgrass, Large [10, 20]: 40; Pigweed plant response rating [11, 21]: 100; Pigweed plant response rating [11, 22]: 100; Plant response rating, Ragweed [12, 19]: 75; Plant response rating, Ragweed [12, 20]: 20; Ragweed plant response rating [13, 16]: 30; Ragweed plant response rating [13, 17]: 85; Plant response rating, Ragweed ([13]; 13 to 15 days): 95; Ragweed plant response rating [13, 18]: 95
CCc1cc(C(=O)NC2CC2)nn1Cc1ccnc(OCC(F)(F)F)c1 [Compound 200]	100	80	100	90	50	80	90	90	5	10	20	10	75	85	98	100	0	0	5	10	Plant response rating, Barnyardgrass [7, 20]: 5; Plant response rating, Ducksalad [8]: 80; Barnyardgrass plant response rating (0 to 100 scale, 0 is no effect, 100 is complete control) [9]: 90; Barnyardgrass plant response rating [9]: 100; Plant response rating (scale of 0 to 100 where 0 is no effect and 100 is complete control), Crabgrass, Large [10]: 10; Crabgrass, Large plant response rating [10]: 10; Plant response rating, Crabgrass, Large [10, 19]: 25; Plant response rating, Crabgrass, Large [10, 20]: 10; Pigweed plant response rating [11, 21]: 100; Pigweed plant response rating [11, 22]: 100; Plant response rating, Ragweed [12, 19]: 45; Plant response rating, Ragweed [12, 20]: 45; Ragweed plant response rating [13, 16]: 5; Ragweed plant response rating [13, 17]: 35; Plant response rating, Ragweed ([13]; 13 to 15 days): 70; Ragweed plant response rating [13, 18]: 85
